Here are results for seven compounds from patent US11667645B2, “Granzyme B directed imaging and therapy” (CytoSite Biopharma Inc., priority 2018, dated 2023).

Series [1] is described as follows: metabolic stability assay using liver microsomes. Type of series: in vitro ADME. Particulars: human liver microsomes, with NRS at 37° C. Here is the method: In addition, compounds of Formula I-VIII described above are also tested in the metabolic stability assay using liver microsomes, as provided below.
Buffer pH7.4: Prepare 1 (M) KH2PO4 and 1 (M) K2HPO4. Titrate 1(M) K2HPO4 with 1 (M) KH2PO4 to obtain pH 7.40. Dilute this buffer 10 fold in Water (30 ml buffer+270 ml of water) to obtain 100 mM phosphate buffer. Adjust pH to 7.40±0.02 using 5(N) HCl or 5(N) NaOH.
NADPH Regeneration System (NRS): Prepare a solution containing 13 mM NADP, 33 mM Glucose-6-phosphate, 33 mM MgCl2 and 4 U/ml Glucose-6-phosphate dehydrogenase in buffer.
Liver Microsome (LM) suspension: Thaw LM vial on ice, then mix 1.0 ml LM (20 mg/ml) with 19 ml buffer [final LM Conc: 1 mg/ml]
LM+NRS suspension: Mix 5.0 ml NRS with 20 ml LM suspension [final LM Conc: 0.8 mg/ml]
System suitability standard: a synthesized compound having Mol wt 686.2 used as System suitability standard. Dissolve this compound in ice-cold acetonitrile to obtain concentration of 0.1 μg/ml and store at 4° C.
Compound Stock: 10 mM in DMSO
Sub stock (100 μM): 4 μl of 10 mM Compound Stock+[…] Acetonitrile
Working plate (2 μM): 10 μl of 100 μM Sub stock+490 μl buffer
Incubate all plastic materials including tips at 37° C. overnight.
Incubate LM suspension and NRS at 37° C. for 15 min before use.
Add 40 μl buffer to the wells of blank plate.
Add 40 μl compound (from working plate) to 0, 5, 10, 20, 30 and 60 min plates.
Initiate reaction by adding 40 μl of LM+NRS suspension in each plate.
Terminate reaction by adding 240 μl ice-cold acetonitrile containing system suitability standard at designated time points. For T=0 add 240 μl ice-cold acetonitrile containing system suitability standard before LM+NRS addition.
Centrifuge (3500 rpm, 20 min and 15° C.) the plates.
Mix 110 μl supernatant with 110 μl water and quantitate amount of Compound in the solution using LC-MS/MS.
For Scaled CLint & Predicted CL use the relevant physiological parameters, as applicable.
Human LM: Corning, Cat #25117
Mouse LM: Xenotech, Cat #M1000
(2) Volumes mentioned in the protocol are representative values and may change depending on number of test compounds.
(3) It is assumed that the compounds are chemically stable in the assay system/buffer.
The metabolic stability assay described above can be performed using different test concentrations, LM Concentrations, or time points.
Certain compounds of this disclosure were tested in the microsomal stability assay provided above.
On the technique in general: Liver microsomes are a subcellular fraction often used to study metabolism.

In series [2] the target is Granzyme B (human lymphocytes) (Homo sapiens (Human), UniProt P10144). The experiment in a line: human Granzyme B biochemical assay. Particulars: for pIC50: read-out: IC50. Put shortly:
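Enzyme (10 nM working stock, assay buffer with 0.1% BSA) pre-incubated with compound for 30 min at 22 °C, then Ac-IETD-AFC (800 µM working stock) added for 60 min at 22 °C in the dark. Fluorescence read at Ex 400/Em 505 nm; 8-point 3.16-fold series (40 µM top working stock); IC50 from % inhibition versus standard-inhibitor and DMSO controls.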

The mark [3] stands for this setting: Granzyme B IC50 as repeated in Table 7.
[4] abbreviates: Granzyme B (human lymphocytes) 5 nM, substrate Ac-IETD-AFC 200 μM, Cpd incubation with enzyme 30 mins, 22° C., read time 60 mins.

pIC50: −log10 of the molar value. Where two headings read alike, the source gives them in different places.

Usually pIC50 stands for the IC50 on a negative log10 scale, so that one unit is a factor of ten.

Sequence of Granzyme B (human lymphocytes) (P10144 21-247): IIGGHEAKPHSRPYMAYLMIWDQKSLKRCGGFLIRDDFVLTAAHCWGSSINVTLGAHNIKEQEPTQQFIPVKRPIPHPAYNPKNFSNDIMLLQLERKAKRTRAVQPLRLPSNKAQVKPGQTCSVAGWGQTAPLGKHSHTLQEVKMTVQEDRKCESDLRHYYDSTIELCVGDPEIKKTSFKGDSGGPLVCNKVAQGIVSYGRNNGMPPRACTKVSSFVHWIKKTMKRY

Take `CC(C)[C@H](NC(=O)Cc1csc2ccccc12)C(=O)N[C@H]1CCc2cccc3c2N(C1=O)[C@H](C(=O)NCc1c[nH]nn1)C3` [Compound C003, (2S,5S)-5-[(S)-2-(2-Benzo[b]thiophen-3-yl-acetylamino)-3-methyl-butyrylamino]-4-oxo-1,2,4,5,6,7-hexahydro-azepino[3,2,1-hi]indole-2-carboxylic acid (1H-[1,2,3]triazol-4-ylmethyl)-amide]: in series [1], the “HLM % remaining @ 30 min” value is reported as “* (“*” indicates a remaining percentage of 0-30%)”. In addition, in series [2] (setting [3]), the pIC50 is 6.52 to 9.00.

For `CC[C@H](C)[C@H](NC(=O)Cc1csc2ccccc12)C(=O)N[C@H]1CCc2cccc3c2N(C1=O)[C@H](C(=O)NCc1c[nH]nn1)C3` [Compound C006, (2S,5S)-5-[(2S,3S)-2-(2-Benzo[b]thiophen-3-yl-acetylamino)-3-methyl-pentanoylamino]-4-oxo-1,2,4,5,6,7-hexahydro-azepino[3,2,1hi]indole-2-carboxylic acid (1H-[1,2,3]triazol-4-ylmethyl)-amide], the “HLM % remaining @ 30 min” value in series [1] was “* (“*” indicates a remaining percentage of 0-30%)”. For the same compound, the negative-log IC50 (pIC50) in series [2] (setting [4]) and in series [2] (setting [3]) was 6.52 to 9.00 in each case. In series [2] (isomers separated by prep HPLC or column chromatography), the “biological potency of separated isomer (in words)” value is given as “biologically potent”.

With `CC(=O)N[C@H](C(=O)N[C@H]1CCc2cccc3c2N(C1=O)[C@H](C(=O)NCc1c[nH]nn1)C3)C(C)C` [Compound C025, (2S,5S)-5-((S)-2-Acetylamino-3-methyl-butyrylamino)-4-oxo-1,2,4,5,6,7-hexahydro-azepino[3,2,1-hi]indole-2-carboxylic acid (1H-[1,2,3]triazol-4-ylmethyl)-amide], in series [1], the “HLM % remaining @ 30 min” value is “*** (the symbol “***” indicates a remaining percentage of 71-100%)”. Moreover, the pIC50 in series [2] (setting [4]) and in series [2] (setting [3]) was 6.52 to 9.00 each time.

Regarding `CC[C@H](C)[C@H](NC(C)=O)C(=O)N[C@H]1CCc2cccc3c2N(C1=O)[C@H](C(=O)NCc1c[nH]nn1)C3` [Compound C028, (2S,5S)-5-((2S,3S)-2-Acetylamino-3-methyl-pentanoylamino)-4-oxo-1,2,4,5,6,7-hexahydro-azepino[3,2,1-hi]indole-2-carboxylic acid (1H-[1,2,3]triazol-4-ylmethyl)-amide], the “HLM % remaining @ 30 min” value in series [1] is on record as “*** (the symbol “***” indicates a remaining percentage of 71-100%)”. The negative-log IC50 (pIC50) in series [2] (setting [4]) and in series [2] (setting [3]) was 6.52 to 9.00 each time.

For the compound `CC(C)[C@H](NC(=O)c1ccccc1)C(=O)N[C@H]1CCc2cccc3c2N(C1=O)[C@H](C(=O)NCc1c[nH]nn1)C3` [Compound C036, (2S,5S)-5-((S)-2-Benzoylamino-3-methyl-butyrylamino)-4-oxo-1,2,4,5,6,7-hexahydro-azepino[3,2,1-hi]indole-2-carboxylic acid (1H-[1,2,3]triazol-4-ylmethyl)-amide], the “HLM % remaining @ 30 min” value in series [1] was “*** (the symbol “***” indicates a remaining percentage of 71-100%)”. The pIC50 in series [2] (setting [4]) and in series [2] (setting [3]) was 6.52 to 9.00 throughout.

For the compound `CC[C@H](C)[C@H](NC(=O)c1ccccc1)C(=O)N[C@H]1CCc2cccc3c2N(C1=O)[C@H](C(=O)NCc1c[nH]nn1)C3` [Compound C039, (2S,5S)-5-((2S,3S)-2-Benzoylamino-3-methyl-pentanoylamino)-4-oxo-1,2,4,5,6,7-hexahydro-azepino[3,2,1-hi]indole-2-carboxylic acid (1H-[1,2,3]triazol-4-ylmethyl)-amide], in series [1], the “HLM % remaining @ 30 min” value is recorded as “** (“**” indicates a remaining percentage of 31-70%)”. In addition, the negative logarithm of the IC50 (pIC50) in series [2] (setting [4]) and in series [2] (setting [3]) was 6.52 to 9.00 in each case.

Consider `CC[C@@H](C)[C@H](NC(=O)c1ccccc1)C(=O)N[C@H]1CCc2cccc3c2N(C1=O)[C@H](C(=O)NCc1c[nH]nn1)C3` [Compound C053, (2S,5S)-5-((2S,3R)-2-Benzoylamino-3-methyl-pentanoylamino)-4-oxo-1,2,4,5,6,7-hexahydro-azepino[3,2,1-hi]indole-2-carboxylic acid (1H-[1,2,3]triazol-4-ylmethyl)-amide], for which the “HLM % remaining @ 30 min” value in series [1] is “** (“**” indicates a remaining percentage of 31-70%)”. In addition, the pIC50 in series [2] (setting [4]) and in series [2] (setting [3]) was 6.52 to 9.00 throughout.
